Reference: patent publication US6355799B1, “Substituted benzene compounds, process for their preparation, and herbicidal and defoliant compositions containing them” (ISK Americas Incorporated, priority 1997, dated 2002)

Assays:
Format in all cases: in vivo
[1] = test system: large crabgrass (Digitaria sanguinalis, DIGSA); test: Post-emerge test, greenhouse herbicide activity screening; conditions: phytotoxicity rating 0-100 (0 no damage, 100 complete death), 14 days after application
Method in brief: (§1)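 Visual ratings on a 0-100 scale (0 no damage, 100 all plants dead) were taken at 14 days after treatment. Rates of 15-1000 g ai/ha in acetone, 187 l/ha, were sprayed onto soil one day after planting (pre-emerge) or onto 2-3 leaf plants with 0.25% v/v surfactant (post-emerge).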

[2] = test system: ivyleaf morningglory (Ipomoea hederacea, IPOHE); test: as above; conditions: phytotoxicity rating 0-100 (0 no damage, 100 complete death), 14 days after application
Method in brief: as §1

[3] = test system: common ragweed (Ambrosia artemisizfolia L., AMBEL); test: as above; conditions: phytotoxicity rating 0-100 (0 no damage, 100 complete death), 14 days after application
Method in brief: as §1

[4] = test system: sicklepod (Cassia obtusifolia, CASOB); test: as above; conditions: phytotoxicity rating 0-100 (0 no damage, 100 complete death), 14 days after application
Method in brief: as §1

[5] = test system: redroot pigweed (Amaranthus retroflexus, AMARE); test: as above; conditions: phytotoxicity rating 0-100 (0 no damage, 100 complete death), 14 days after application
Method in brief: as §1

[6] = test system: green foxtail (Setaria viridis, SETVI); test: as above; conditions: phytotoxicity rating 0-100 (0 no damage, 100 complete death), 14 days after application
Method in brief: as §1

[7] = test system: johnsongrass (Sorghum halepense, SORHA); test: as above; conditions: phytotoxicity rating 0-100 (0 no damage, 100 complete death), 14 days after application
Method in brief: as §1

[8] = test system: velvetleaf (Abutilon theophrasti, ABUTH); test: as above; conditions: phytotoxicity rating 0-100 (0 no damage, 100 complete death), 14 days after application
Method in brief: as §1

[9] = test system: barnyardgrass (Echinochloa crus-galli, ECHCG); test: as above; conditions: phytotoxicity rating 0-100 (0 no damage, 100 complete death), 14 days after application
Method in brief: as §1

[10] = test system: lambsquarters (Chenopodium album, CHEAL); test: as above; conditions: phytotoxicity rating 0-100 (0 no damage, 100 complete death), 14 days after application
Method in brief: as §1

[11] = test system: field corn (Zea mays L., var. Dekalb 535, CORN); test: Post-emerge test, crop safety; conditions: phytotoxicity rating 0-100 (0 no damage, 100 complete death), 14 days after application
Method in brief: (§2)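 Applied at 15–1000 g ai/ha from acetone in 187 l/ha spray volume. Post-emergence applications included 0.25% v/v non-ionic surfactant and reached plants sown 8–21 days before. Pre-emergence applications were incorporated by surface watering. Efficacy or crop damage was rated on a 0–100 scale after 14 days.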

[12] = test system: upland rice (Oryza sp., var. Tebonnet, RICE); test: Post-emerge test, crop safety; conditions: phytotoxicity rating 0-100 (0 no damage, 100 complete death), 14 days after application
Method in brief: as §2

[13] = test system: redroot pigweed (Amaranthus retroflexus, AMARE); test: Pre-emerge test, greenhouse herbicide activity screening; conditions: pre-emerge, rated 14 days after application, 0 = no damage, 100 = complete death
Method in brief: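 Sandy loam pots; pre-emerge: sown 1 d pre-spray, surface-watered after, then bottom-watered. Post-emerge: sown 8–21 d before, 2–3 leaf stage, + 0.25% v/v NIS, bottom-watered. Acetone, 187 l/ha track spray, 15–1000 g ai/ha. 0–100 injury score, day 14.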

[14] = test system: large crabgrass (Digitaria sanguinalis, DIGSA); test: as above; conditions: pre-emerge, rated 14 days after application, 0 = no damage, 100 = complete death
Method in brief: as §2

[15] = test system: ivyleaf morningglory (Ipomoea hederacea, IPOHE); test: as above; conditions: pre-emerge, rated 14 days after application, 0 = no damage, 100 = complete death
Method in brief: as §2

[16] = test system: common ragweed (Ambrosia artemisizfolia L., AMBEL); test: as above; conditions: pre-emerge, rated 14 days after application, 0 = no damage, 100 = complete death
Method in brief: as §2

[17] = test system: sicklepod (Cassia obtusifolia, CASOB); test: as above; conditions: pre-emerge, rated 14 days after application, 0 = no damage, 100 = complete death
Method in brief: as §2

[18] = test system: green foxtail (Setaria viridis, SETVI); test: as above; conditions: pre-emerge, rated 14 days after application, 0 = no damage, 100 = complete death
Method in brief: as §2

[19] = test system: johnsongrass (Sorghum halepense, SORHA); test: as above; conditions: pre-emerge, rated 14 days after application, 0 = no damage, 100 = complete death
Method in brief: as §2

[20] = test system: velvetleaf (Abutilon theophrasti, ABUTH); test: as above; conditions: pre-emerge, rated 14 days after application, 0 = no damage, 100 = complete death
Method in brief: as §2

[21] = test system: barnyardgrass (Echinochloa crus-galli, ECHCG); test: as above; conditions: pre-emerge, rated 14 days after application, 0 = no damage, 100 = complete death
Method in brief: as §2

[22] = test system: lambsquarters (Chenopodium album, CHEAL); test: as above; conditions: pre-emerge, rated 14 days after application, 0 = no damage, 100 = complete death
Method in brief: as §2

[23] = test system: field corn (Zea mays L., var. Dekalb 535, CORN); test: Pre-emerge test, crop safety; conditions: pre-emerge, rated 14 days after application, 0 = no damage, 100 = complete death
Method in brief: as §2

[24] = test system: upland rice (Oryza sp., var. Tebonnet, RICE); test: Pre-emerge test, crop safety; conditions: pre-emerge, rated 14 days after application, 0 = no damage, 100 = complete death
Method in brief: as §2

Which results are given for `COc1c(Cl)cc(F)c(-n2c(=O)cc(C(F)(F)F)n(C)c2=O)c1N(C)C` [Compound 1-11, 3-(4-chloro-2-dimehtylainino-6-fluoro-3-methoxyphenyl)-1-methyl-6-trifluoromethyl-2,4(1H, 3H)-pyrimidinedione]?
Post-emerge Herbicidal Activity DIGSA ([1]; 63 g ai/ha): 0; Post-emerge Herbicidal Activity DIGSA ([1]; 250 g ai/ha): 0; Post-emerge Herbicidal Activity IPOHE ([2]; 63 g ai/ha): 40; Post-emerge Herbicidal Activity IPOHE ([2]; 250 g ai/ha): 70; Post-emerge Herbicidal Activity AMBEL ([3]; 63 g ai/ha): 10; Post-emerge Herbicidal Activity AMBEL ([3]; 250 g ai/ha): 10; Post-emerge Herbicidal Activity CASOB ([4]; 63 g ai/ha): 0; Post-emerge Herbicidal Activity CASOB ([4]; 250 g ai/ha): 0; Post-emerge Herbicidal Activity AMARE ([5]; 63 g ai/ha): 40; Post-emerge Herbicidal Activity AMARE ([5]; 250 g ai/ha): 60; Post-emerge Herbicidal Activity SETVI ([6]; 63 g ai/ha): 0; Post-emerge Herbicidal Activity SETVI ([6]; 250 g ai/ha): 50; Post-emerge Herbicidal Activity SORHA ([7]; 63 g ai/ha): 0; Post-emerge Herbicidal Activity SORHA ([7]; 250 g ai/ha): 0; Post-emerge Herbicidal Activity ABUTH ([8]; 63 g ai/ha): 70; Post-emerge Herbicidal Activity ABUTH ([8]; 250 g ai/ha): 100; Post-emerge Herbicidal Activity ECHCG ([9]; 63 g ai/ha): 0; Post-emerge Herbicidal Activity ECHCG ([9]; 250 g ai/ha): 0; Post-emerge Herbicidal Activity CHEAL ([10]; 63 g ai/ha): 50; Post-emerge Herbicidal Activity CHEAL ([10]; 250 g ai/ha): 95; Post-emerge Herbicidal Activity CORN (crop damage) ([11]; 63 g ai/ha): 0; Post-emerge Herbicidal Activity CORN (crop damage) ([11]; 250 g ai/ha): 0; Post-emerge Herbicidal Activity RICE (crop damage) ([12]; 63 g ai/ha): 0; Post-emerge Herbicidal Activity RICE (crop damage) ([12]; 250 g ai/ha): 0; Pre-emerge Herbicidal Activity AMARE (phytotoxicity rating, scale 0-100) ([13]; 63 g ai/ha): 100; Pre-emerge Herbicidal Activity AMARE (phytotoxicity rating, scale 0-100) ([13]; 250 g ai/ha): 100; Pre-emerge Herbicidal Activity DIGSA (phytotoxicity rating, scale 0-100) ([14]; 63 g ai/ha): 90; Pre-emerge Herbicidal Activity DIGSA (phytotoxicity rating, scale 0-100) ([14]; 250 g ai/ha): 100; Pre-emerge Herbicidal Activity IPOHE (phytotoxicity rating, scale 0-100) ([15]; 63 g ai/ha): 20; Pre-emerge Herbicidal Activity IPOHE (phytotoxicity rating, scale 0-100) ([15]; 250 g ai/ha): 90; Pre-emerge Herbicidal Activity AMBEL (phytotoxicity rating, scale 0-100) ([16]; 63 g ai/ha): 50; Pre-emerge Herbicidal Activity AMBEL (phytotoxicity rating, scale 0-100) ([16]; 250 g ai/ha): 100; Pre-emerge Herbicidal Activity CASOB (phytotoxicity rating, scale 0-100) ([17]; 63 g ai/ha): 20; Pre-emerge Herbicidal Activity CASOB (phytotoxicity rating, scale 0-100) ([17]; 250 g ai/ha): 60; Pre-emerge Herbicidal Activity SETVI (phytotoxicity rating, scale 0-100) ([18]; 63 g ai/ha): 80; Pre-emerge Herbicidal Activity SETVI (phytotoxicity rating, scale 0-100) ([18]; 250 g ai/ha): 100; Pre-emerge Herbicidal Activity SORHA (phytotoxicity rating, scale 0-100) ([19]; 63 g ai/ha): 90; Pre-emerge Herbicidal Activity SORHA (phytotoxicity rating, scale 0-100) ([19]; 250 g ai/ha): 98; Pre-emerge Herbicidal Activity ABUTH (phytotoxicity rating, scale 0-100) ([20]; 63 g ai/ha): 100; Pre-emerge Herbicidal Activity ABUTH (phytotoxicity rating, scale 0-100) ([20]; 250 g ai/ha): 100; Pre-emerge Herbicidal Activity ECHCG (phytotoxicity rating, scale 0-100) ([21]; 63 g ai/ha): 0; Pre-emerge Herbicidal Activity ECHCG (phytotoxicity rating, scale 0-100) ([21]; 250 g ai/ha): 95; Pre-emerge Herbicidal Activity CHEAL (phytotoxicity rating, scale 0-100) ([22]; 63 g ai/ha): 100; Pre-emerge Herbicidal Activity CHEAL (phytotoxicity rating, scale 0-100) ([22]; 250 g ai/ha): 100; Pre-emerge crop damage CORN (phytotoxicity rating, scale 0-100) ([23]; 63 g ai/ha): 0; Pre-emerge crop damage CORN (phytotoxicity rating, scale 0-100) ([23]; 250 g ai/ha): 60; Pre-emerge crop damage RICE (phytotoxicity rating, scale 0-100) ([24]; 63 g ai/ha): 20; Pre-emerge crop damage RICE (phytotoxicity rating, scale 0-100) ([24]; 250 g ai/ha): 70
